Test results: patent US20050181516A1, “Bioequivalence determination using expression profiling” (priority 2002, published 2005)

Experiments:
[1] = system: reperfusion after ischemia in the brain; details: in vivo; cited from earlier work
contact dermatitis = details: topical application and oral route; cited from earlier work
psoriasis = test: 4 weeks clinical study of oral ASM981 in psoriatic patients; type: in vivo, human; details: 8 ASM981-treated patients, oral 60 mg/day (30 mg b.i.d.)
Protocol: A clinical study was initiated with a standardized oral formulation of ASM981 (pimecrolimus) to treat psoriatic patients. The purpose of this study was both to investigate the nature of the alteration in gene expression profiles caused by the administration of a standardised oral formulation of pimecrolimus and to produce the necessary data to allow the bioequivalence of other pharmaceutically equivalent oral formulations of pimecrolimus to be tested. The dose used was 60 mg/day, given as 30 mg twice a day (b.i.d.). To make this dose the […] tablets were cut in half using a special cutter (Tablettenteiler NR.96) so as to obtain 30 mg of ASM981 or a matched amount of placebo. ASM981 was evaluated as treatment for psoriasis using an oral dose of 60 mg (30 mg b.i.d) during a 4 weeks clinical study. The oral formulation used was a highly standardized oral dosage form that could be produced in large amounts and with a highly uniform composition, this was oral formulation A. The cohort included 10 patients; 8 received oral formulation A and 2 received a placebo. Blood samples were collected before the first administration to establish the gene expression baseline and on days 13 or 14 after treatment with ASM981 or placebo and submitted to gene expression analysis in order to gain insights into the mechanisms of action of the compound.

macrophilin FKBP12 = macrophilin FKBP12 (Homo sapiens, UniProt P62942); details: relative to FK506; cited from earlier work
Sequence of macrophilin FKBP12 (P62942 whole entry): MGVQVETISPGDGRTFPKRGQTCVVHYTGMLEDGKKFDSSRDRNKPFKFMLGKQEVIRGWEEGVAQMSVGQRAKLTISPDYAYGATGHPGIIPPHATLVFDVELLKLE

T cells and mast cells = details: in vitro; cited from earlier work
[2] = system: atopic dermatitis or psoriasis; details: topical formulation; cited from earlier work

CC[C@@H]1/C=C(\C)C[C@H](C)C[C@H](OC)[C@H]2O[C@@](O)(C(=O)C(=O)N3CCCC[C@H]3C(=O)O[C@H](/C(C)=C/[C@@H]3CC[C@H](Cl)[C@H](OC)C3)[C@H](C)[C@@H](O)CC1=O)[C@H](C)C[C@@H]2OC [ASM981, 33-Epichloro-33-desoxy-ascomycin]
anti-inflammatory properties in reperfusion after ischemia in the brain [1]: successfully tested | efficacy in animal models of contact dermatitis (contact dermatitis): effective | psoriasis (clinical data) (psoriasis): reduction of psoriasis | affinity for macrophilin FKBP12, fold lower than FK506 (macrophilin FKBP12): 3 fold | IgE promoter activity (T cells and mast cells): decrease | T cell activation and proliferation (T cells and mast cells): decrease | inflammatory mediators release (T cells and mast cells): impaired | outcome of clinical trials in atopic dermatitis or psoriasis [2]: clinical regression
